Experimental data published in patent publication US7554012B2, “Plants and plant cells exhibiting resistance to AMPA, and methods for making the same” (priority 1998, dated 2009).
Read-outs that look alike come from different tables or passages of the source.

What was measured:
[1] = biological target: T1, purified PhnO protein (Escherichia coli, UniProt P16691, P2A); assay: AMPA transacylase acyl-CoA acyl donor specificity, HPLC; format: biochemical, E. coli; details: for [^14C]-AMPA % Conversion: 5 minutes 30° C.; for % Activity: 1 mM acetyl-CoA = 100% reference
T1 construct: made in house; host or cells: E. coli JM101 carrying pMON15032 (recA promoter, nalidixic acid induction)
Procedure: PhnO was purified from a one liter Luria Bertani broth culture of E. coli JM101 expressing a recombinant phnO gene from pMON15032 after nalidixic acid induction for three hours at 37° C. Cells were harvested by centrifugation and resuspended in 40 ml cold Tris buffer (0.1 M Tris-HCl pH 8) and placed on ice. The cell suspension was brought to 1 mM DTT and 0.5 mM PMSF. The suspension was lysed by 2 passages through a prechilled French pressure cell at 1,100 psi, centrifuged at 12,000 g (10,000 rpm in an Sorvall SA600 rotor) for 40 min at 4° C., then placed on ice. The cleared supernatants were poured into fresh 15 ml polypropylene tubes. The samples were split again into two equal portions and maintained at −80° C. until used further for purification of PhnO protein. 20 microliters of the soluble fraction was assayed for enzyme activity using the HPLC method described above in Example 2, except after terminating the assay with acid addition, the sample was stored at −80° C. A Sephacryl S200 column was prepared according to the manufacturers' instructions and equilibrated with a solution containing 20 mM Tris pH 8.0 and 0.5 mM MgCl2. The entire total soluble extract was layered over the top of the column bed after thawing on ice. Forty 9 ml fractions were collected from the column eluate, and thirty microliters of each fraction was analyzed by western blot using anti-PhnO antiserum after resolution on a 15% SDS-PAGE gel. Also, thirty microliters of each fraction was analyzed for AMPA acyl transferase activity using the method described in Example 2. […] These were represented by fractions 7 through 19 in this example, and were combined into a 100 ml volume, distributed into […] each containing 10 ml volumes, and stored at −80° C. for further use.
Anion exchange chromatography was used to determine the elution pattern of PhnO away from other contaminating proteins that co-elute during the Sephacryl S200 fractionation. One tube from the combined PhnO positive fractions was thawed on ice and injected into a 5/5 Mono-Q column pre-equilibrated with buffers A (one liter of 20 mM Tris-HCl pH 8.0 Mili-Q distilled deionized water) and B (one liter of 20 mM Tris-HCl pH 8.0, 1 M NaCl). The sample containing PhnO active protein was injected into the column and one milliliter fractions were collected. The column was washed for five minutes with a flow rate of 1.8 ml per minute Buffer A after loading the PhnO containing sample. At five minutes, Buffer B was added to the flow volume at 0.5 ml per minute for four minutes. Buffer B was ramped up to 22% of the flow volume at 10 minutes, 30% at 12 minutes, 36% at 13 minutes, 41% at 14 minutes, 46% at 15 minutes, 74% at 16 minutes, and 100% at 16 minutes through 22 minutes, at which point Buffer B flow was terminated and Buffer A was reinitiated at 100% to equilibrate the column. Ten microliter volumes from individual fractions collected from the Mono-Q column were analyzed by western blot and for transacylase activity as described in Example 2. […] Samples of this purified PhnO protein were used to determine enzyme's acyl donor substrate specificity.
Enzyme reactions were prepared as follows. […] A assay premix was prepared from which 45 microliters was used in each 100 microliter reaction. This 45 microliter premix sample consisted of 40 microliters distilled and deionized water, 2 microliters of 50 mM MgCl2, and 3 microliters of 1.3 mM [^14C]-AMPA (115,392 dpm per microliter). Reactions were initiated by mixing 40 microliters of 125 mM Tris-HCl pH 8.0, […] protein sample and 10 microliters acyl-CoA acyl donor compound in a microcentrifuge tube at room temperature. Each acyl-CoA acyl donor compound was prepared as a stock solution of 1 mM, 5 mM or 10 mM stocks. Each tube was then mixed with 45 microliters of the assay premix containing the [^14C]-AMPA […] substrate, mixed gently and transferred to a 30° C. water bath for 5 minutes. […]

[2] = biological target: PhnO enzyme (Escherichia coli, UniProt P16691, P2A)
Procedure: The apparent Km of PhnO for the substrate acetyl-CoA was determined in similar experiments. After several attempts to obtain end point kinetics, it was determined that the turnover number was too low to be reliable at AMPA concentrations of about 30 mM and enzyme amounts of about 1-10 ng. An alternative approach was tried using tritium labeled acetyl-CoA. The specific activity of the label was about 40× higher than with [^14C], providing a gain in sensitivity that allowed for the determination of the apparent Km of PhnO for Acetyl-CoA. The [^3H]-acetyl-CoA (Amersham, Inc.) specific activity was 360 mCi/mg or 250 μCi/ml. […] This was accomplished by adjusting the concentration of KH2PO4 buffer (pH 5.5) to 40 mM with a flow rate of 1 ml per minute over an AX100 weak anion exchange column. Each sample was reacted with PhnO and 30 mM AMPA for five minutes at 37° C. and quenched with 100 mM NaOAc pH 4.4 in ethanol, then analyzed by HPLC. [^3H]-acetyl-CoA substrate ranged from 25 micromolar to 1.3 mM in each reaction along with about 5 ng PhnO, 50 mM Tris pH 7.5, 1 mM MnCl2, 1 mM MgCl2, and 30 mM AMPA. Samples were analyzed by HPLC to determine the amounts of N-[^3H]-acetyl-AMPA produced, and [^3H]-acetyl-CoA remaining.

[3] = test system: Wheat immature embryos; assay: Wheat embryo germination assay; format: in vivo; details: for Germinating root length / Germinating shoot length: ten days
Procedure: Wheat immature embryos were exposed to different concentrations of AMPA and N-acetyl-AMPA in a wheat embryo germination assay. MMSO base media was prepared containing 40 grams per liter maltose, 2 grams per liter GELRITE™, MS salts, and vitamins. Salts, vitamins, and maltose were dissolved in 3500 ml water and the pH was adjusted to 5.8. 500 ml was dispensed into a separate bottle along with 1 gram of GELRITE™ and autoclaved for 17 minutes. After the medium had cooled to about 45° C., AMPA or N-acetyl-AMPA was added to a defined concentration. The mixture was poured into six square Sundae cups under sterile conditions and allowed to solidify.
Immature wheat embryos were isolated from twenty day old seedlings (after anther formation) and inoculated into each MMSO media. Each Sundae cup contained nine immature embryo's. Three separate plates were used for each concentration of AMPA (0, 0.1, 0.15, 0.2, 0.25, 0.3, and 1.0 mM) or N-acetyl-AMPA (0, 0.1, 0.3, 1.0, and 3.0 mM). Sundae cups were incubated for ten days and the length of roots and shoots were determined and compared.

[4] = test system: Tobacco callus; assay: Tobacco callus growth on plates with AMPA or N-acetyl AMPA; format: cell-based, Nicotiana tabacum cv. "Samsun"; details: plates with 0.1 mM or 0.4 mM, up to three weeks
Procedure: Tobacco callus was generated from leaf pieces of wild type Nicotiana tabacum cv. “Samsun” tobacco on MS104 plates (MS salts 4.3 g/l, sucrose 30 g/l, B5 vitamins 500X 2 ml/l, NAA 0.1 mg/l, and Bacto Agar […]). Callus tissue was applied to plates with or without AMPA and with or without N-acetyl AMPA. Plates contained AMPA or N-acetyl AMPA at concentrations of 0.1 mM or 0.4 mM. Plates were incubated for up to three weeks and monitored periodically.

[5] = test system: AMPA acyltransferase activity; assay: AMPA acyltransferase HPLC assay of bacterial lysates; format: biochemical; details: lysates of induced E. coli JM101 transformants
[6] = any concentration tested (0.1-3.0 mM)

CC(=O)SCCNC(=O)CCNC(=O)[C@H](O)C(C)(C)COP(=O)(O)OP(=O)(O)OC[C@H]1O[C@@H](n2cnc3c(N)ncnc32)[C@H](O)[C@@H]1OP(=O)(O)O [Acetyl-CoA]
[^14C]-AMPA % Conversion ([1]; acyl donor 0.1 mM): 79.2%
% Activity ([1]; acyl donor 0.1 mM): 79.2%
[^14C]-AMPA % Conversion ([1]; acyl donor 0.5 mM): 98.7%
% Activity ([1]; acyl donor 0.5 mM): 98.7%
[^14C]-AMPA % Conversion ([1]; acyl donor 1 mM): 100.00%
% Activity ([1]; acyl donor 1 mM): 100.00%
Velocity ([2]; [Acetyl-CoA] 25 micromolar, 30 mM AMPA): 34
Velocity ([2]; [Acetyl-CoA] 50 micromolar): 66
Velocity ([2]; [Acetyl-CoA] 75 micromolar): 94
Velocity ([2]; [Acetyl-CoA] 100 micromolar): 125
Velocity ([2]; [Acetyl-CoA] 125 micromolar): 150
Velocity ([2]; [Acetyl-CoA] 150 micromolar): 173
Velocity ([2]; [Acetyl-CoA] 175 micromolar): 193
Velocity ([2]; [Acetyl-CoA] 200 micromolar): 219
Velocity ([2]; [Acetyl-CoA] 225 micromolar): 240
Velocity ([2]; [Acetyl-CoA] 250 micromolar): 259
Velocity ([2]; [Acetyl-CoA] 375 micromolar): 339
Velocity ([2]; [Acetyl-CoA] 390 micromolar): 287
Velocity ([2]; [Acetyl-CoA] 520 micromolar): 331
Velocity ([2]; [Acetyl-CoA] 650 micromolar): 352
Velocity ([2]; [Acetyl-CoA] 780 micromolar): 372
Velocity ([2]; [Acetyl-CoA] 910 micromolar): 397
Velocity ([2]; [Acetyl-CoA] 1040 micromolar): 411
Velocity ([2]; [Acetyl-CoA] 1170 micromolar): 425
Velocity ([2]; [Acetyl-CoA] 1300 micromolar): 434
apparent Vmax ([2]; acetyl-CoA substrate, Lineweaver-Burk plot): about 824 U/mg protein
Km ([2]; read-out: apparent Km of PhnO for acetyl-CoA as a substrate, 30 mM AMPA, Lineweaver-Burk plot of Table 9 data): 375 to 390 µM

N-acetyl-amino-methyl-phosphonate [N-acetyl AMPA]
Germinating root length ([3]; 0.10 mM): 5.9 ± 1.4 cm
Germinating shoot length ([3]; 0.10 mM): 12.0 ± 2.4 cm
Germinating root length ([3]; 0.30 mM): 5.2 ± 1.2 cm
Germinating shoot length ([3]; 0.30 mM): 11.7 ± 3.5 cm
Germinating root length ([3]; 1.00 mM): 5.4 ± 1.5 cm
Germinating shoot length ([3]; 1.00 mM): 12.2 ± 3.2 cm
Germinating root length ([3]; 3.00 mM): 5.9 ± 1.6 cm
Germinating shoot length ([3]; 3.00 mM): 11.2 ± 2.6 cm
inhibition of root elongation [3, 6]: only mildly inhibitory
inhibition of shoots [3, 6]: not inhibitory
concentration with no significant effects to immature embryo germination ([3]; in vivo): less than 3.0 mM
growth of tobacco callus tissue [4]: not inhibited

B1: CTP-PhnO peptide: chloroplast transit peptide fused to PhnO (SEQ ID NO:12) (protein)
chain: MASSMLSSATMVASPAQATMVAPFNGLKSSAAFPATRKANNDITSITSNGGRVNCMQVWPPIGKKKFETLSYLPDLTDSGGRVNCMQAMAACELRPATQYDTDAVYALICELKQAEFDHHAFRVGFNANLRDPNMRYHLALLDGEVVGMIGLHLQFHLHHVNWIGEIQELVVMPQARGLNVGSKLLAWAEEEARQAGAEMTELSTNVKRHDAHRFYLREGYEQSHFRFTKAL
AMPA acyltransferase activity of cell lysates [5]: retain full enzymatic acyltransferase activity
